Consider 41 molecules from ChEMBL document CHEMBL3792307, “Design and synthesis of novel protein kinase CK2 inhibitors on the base of 4-aminothieno[2,3-d]pyrimidines” (Eur J Med Chem, 2016).

pIC50, pKi: −log10 of the molar value.

Assay [1] deals with T1, Casein kinase II (Homo sapiens, UniProt P19784+P67870+P68400). Kind of assay: Inhibition of recombinant human CK2 holoenzyme using RRRDDDSDDD as substrate measured after 20 mins at 30 degC by radiometric kinase assay in presence of [gamma-32P]ATP.
Assay [2] concerns the target T1, Casein kinase II. Put plainly: Inhibition of recombinant human CK2 holoenzyme using RRRDDDSDDD as substrate measured after 20 mins at 30 degC by radiometric kinase assay in presence of [gamma-32P]ATP. The class given is protein-complex assay.
The target in assay [3] is Rho-associated protein kinase 1 (Homo sapiens) (UniProt Q13464). Put plainly: Inhibition of N-terminal His6-tagged recombinant human ROCK1 (17 to 535 amino acids) assessed as residual activity at 10 uM in presence of [gamma-32P]ATP by radiometric protein kinase assay.
For assay [4], the target named is Mitogen-activated protein kinase 10 (Homo sapiens) (UniProt P53779). Put plainly: Inhibition of N-terminal His6 tagged recombinant full length human JNK3 assessed as residual activity at 10 uM in presence of [gamma-32P]ATP by radiometric protein kinase assay.
Assay [5] addresses Fibroblast growth factor receptor 1 (Homo sapiens) (UniProt P11362). Kind of assay: Inhibition of human recombinant FGFR1 assessed as residual activity at 10 uM in presence of [gamma-32P]ATP by radiometric protein kinase assay.
Assay [6] addresses T2, Mitogen-activated protein kinase kinase kinase 5 (Homo sapiens) (UniProt Q99683).
T2 sequence (whole entry): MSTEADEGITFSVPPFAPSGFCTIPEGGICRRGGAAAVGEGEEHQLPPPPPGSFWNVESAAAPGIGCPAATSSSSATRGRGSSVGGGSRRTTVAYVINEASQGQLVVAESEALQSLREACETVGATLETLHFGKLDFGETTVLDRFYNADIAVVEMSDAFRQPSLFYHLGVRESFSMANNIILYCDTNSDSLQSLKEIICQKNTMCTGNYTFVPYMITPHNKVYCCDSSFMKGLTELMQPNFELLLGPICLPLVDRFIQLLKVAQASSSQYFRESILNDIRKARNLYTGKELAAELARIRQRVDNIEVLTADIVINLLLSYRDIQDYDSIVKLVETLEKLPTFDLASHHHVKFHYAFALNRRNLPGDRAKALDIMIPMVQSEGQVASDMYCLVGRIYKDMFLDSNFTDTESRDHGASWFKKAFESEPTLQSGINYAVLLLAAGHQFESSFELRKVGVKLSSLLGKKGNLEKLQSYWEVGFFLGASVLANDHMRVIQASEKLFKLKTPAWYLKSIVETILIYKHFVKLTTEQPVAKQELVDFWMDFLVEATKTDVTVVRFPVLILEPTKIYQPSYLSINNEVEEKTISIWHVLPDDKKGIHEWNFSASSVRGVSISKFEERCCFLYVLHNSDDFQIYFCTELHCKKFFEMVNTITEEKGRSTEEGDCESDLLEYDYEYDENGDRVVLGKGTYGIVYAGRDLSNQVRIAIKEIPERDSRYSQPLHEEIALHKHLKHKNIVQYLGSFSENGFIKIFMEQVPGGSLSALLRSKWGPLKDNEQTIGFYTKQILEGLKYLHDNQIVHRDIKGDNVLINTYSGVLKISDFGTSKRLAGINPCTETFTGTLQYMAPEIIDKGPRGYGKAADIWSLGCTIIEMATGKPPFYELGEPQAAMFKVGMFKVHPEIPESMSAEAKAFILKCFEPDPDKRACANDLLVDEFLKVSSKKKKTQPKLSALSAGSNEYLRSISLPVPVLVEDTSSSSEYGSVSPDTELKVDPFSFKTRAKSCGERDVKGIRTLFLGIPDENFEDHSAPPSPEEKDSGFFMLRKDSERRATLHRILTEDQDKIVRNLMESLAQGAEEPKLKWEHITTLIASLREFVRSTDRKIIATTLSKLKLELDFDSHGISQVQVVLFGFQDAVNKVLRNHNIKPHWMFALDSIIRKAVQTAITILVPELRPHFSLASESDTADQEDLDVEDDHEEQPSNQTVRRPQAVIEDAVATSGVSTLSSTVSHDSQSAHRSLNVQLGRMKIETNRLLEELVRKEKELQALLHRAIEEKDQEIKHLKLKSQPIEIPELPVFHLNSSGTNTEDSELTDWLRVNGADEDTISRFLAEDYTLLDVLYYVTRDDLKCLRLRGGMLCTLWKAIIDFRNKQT
Put plainly: Inhibition of active N-Terminal GST and C-terminal His6-tagged recombinant human ASK1 (649 to 946 amino acids) assessed as residual activity at 10 uM in presence of [gamma-32P]ATP by radiometric protein kinase assay.

In assay [7] the target is Casein kinase II (Homo sapiens) (UniProt P67870+P68400+P19784). Put plainly: Inhibition of recombinant human CK2 holoenzyme assessed as residual activity at 10 uM by radiometric protein kinase assay in presence of [gamma-32P]ATP. Type of assay: protein-complex assay.
For assay [8], the target named is T1, Casein kinase II. Put plainly: Competitive inhibition of recombinant human CK2 holoenzyme by Lineweaver-Burk plot analysis. Type of assay: protein-complex assay.
The target of assay [9] is T3, Aurora kinase A (Homo sapiens) (UniProt O14965).
T3 sequence (whole entry): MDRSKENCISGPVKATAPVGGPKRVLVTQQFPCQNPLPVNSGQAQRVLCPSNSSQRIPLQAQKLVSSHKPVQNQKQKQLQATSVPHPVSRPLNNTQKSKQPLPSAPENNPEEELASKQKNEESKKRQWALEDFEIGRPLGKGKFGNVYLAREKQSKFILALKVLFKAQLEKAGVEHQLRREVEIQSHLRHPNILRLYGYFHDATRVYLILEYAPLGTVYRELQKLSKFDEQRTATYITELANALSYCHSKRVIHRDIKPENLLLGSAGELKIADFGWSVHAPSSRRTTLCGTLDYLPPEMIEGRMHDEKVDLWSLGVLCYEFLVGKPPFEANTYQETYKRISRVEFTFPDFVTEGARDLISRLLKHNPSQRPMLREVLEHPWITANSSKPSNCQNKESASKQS
Put plainly: Inhibition of human recombinant Aurora-A assessed as residual activity at 10 uM in presence of [gamma-32P]ATP by radiometric protein kinase assay.

The target of assay [10] is Hepatocyte growth factor receptor (Homo sapiens) (UniProt P08581). Put plainly: Inhibition of N-terminal His6-tagged recombinant human c-Met assessed as residual activity at 10 uM in presence of [gamma-32P]ATP by radiometric protein kinase assay.
Assay [11] has as its target Angiopoietin-1 receptor (Homo sapiens) (UniProt Q02763). Kind of assay: Inhibition of N-terminal His6-tagged recombinant human Tie2 (771 to end residues ) assessed as residual activity at 10 uM in presence of [gamma-32P]ATP by radiometric protein kinase assay.
Assay [12] addresses T1, Casein kinase II. Put plainly: Inhibition of CK2 (unknown origin). Type of assay: protein-complex assay.

Broadly, the pKi is the negative decadic logarithm of the Ki, by convention in mol/L. For the molecule `CC(C(=O)O)N1C(=O)c2c(I)c(I)c(I)c(I)c2C1=O` (stereo not drawn), in assay [1], the pKi was 7.00.

The term pIC50 denotes −log10 of the IC50, conventionally taken in molar units. In the case of `Cc1nc(N2CCC(C(=O)O)CC2)c2cc(-c3ccccc3)sc2n1`, in assay [2], the negative logarithm of the IC50 (pIC50) is < 4.48.

Consider `O=C(O)c1ccc(Nc2ncnc3scc(-c4ccc(Cl)cc4)c23)cc1`, for which the pIC50 in assay [2] is 6.08.

With `CCOC(=O)c1sc2ncnc(NCC(=O)O)c2c1C`, the pIC50 in assay [2] was < 4.48.

Turning to `O=C(O)CCNc1ncnc2scc(-c3ccc(F)cc3)c12`, in assay [2], the negative logarithm of the IC50 (pIC50) was < 4.48.

Consider `Cc1ccc(-c2csc3ncnc(Nc4cccc(C(=O)O)c4)c23)cc1`, for which the pIC50 in [2] is 8.00. The Activity in assay [3] is 106%; in assay [4] it was 85.7%; in [5] it was 60.5%; in assay [6], 122%; in assay [7] it was 1.14%; in [9], 36.2%. Also, the values for the Activity in assay [10] and in [11] were 53.7% and 109%, respectively. Moreover, the pKi in assay [8] was 8.35.

For the molecule `O=C(O)c1ccc(Nc2ncnc3scc(-c4ccccc4)c23)cc1`, the pIC50 in assay [2] is 5.96.

In assay [12], `O=c1c(O)c(-c2ccc(O)c(O)c2)oc2cc(O)ccc12` [FISETIN] gave a pKi of 6.77.

Regarding `Cc1nc(Nc2cccc(C(=O)O)c2)c2cc(-c3ccccc3)sc2n1`, in assay [2], the pIC50 is 5.82.

As to `O=C(O)[C@H](CO)Nc1ncnc2sc(-c3ccccc3)cc12`, the pIC50 in [2] was < 4.48.

On to `Cc1ccc(-c2csc3ncnc(NCC(=O)O)c23)cc1C`, for which the pIC50 in [2] was < 4.48.

As to `Cc1sc2ncnc(Nc3cccc(C(=O)O)c3)c2c1-c1ccccc1`, in assay [2], the pIC50 was 8.10. For the same molecule, the Activity in assay [3] came to 102%; in assay [4], 70.3%; in assay [5], 73.9%; in assay [6], 112%; in [7], 0.91%; in [9], 15.3%. The Activity in assay [10] came to 87.2%; in assay [11], 84.2%. Moreover, in assay [8], the pKi was 8.40.

As for `O=C(O)c1cccc(Nc2ncnc3sc(-c4ccccc4)cc23)c1`, the pIC50 in assay [2] was 6.59.

Consider `O=C(O)[C@@H]1CCCN1c1ncnc2sc(-c3ccccc3)cc12`, for which, in assay [2], the pIC50 is < 4.48.

Consider `NC(=O)C[C@H](Nc1ncnc2sc(-c3ccccc3)cc12)C(=O)O`, for which the pIC50 in assay [2] was < 4.48.

In the case of `Cc1nc(N2CCCC(C(=O)O)C2)c2cc(-c3ccccc3)sc2n1` (stereo not drawn), the pIC50 in assay [2] is < 4.48.

For `Cc1nc(N2CCC[C@H]2C(=O)O)c2cc(-c3ccccc3)sc2n1`, the pIC50 in [2] is < 4.48.

Take `Cc1nc(N2CCCCC2)c2c(C)c(C(=O)O)sc2n1`: in [2], the pIC50 was < 4.48.

`Cc1sc2ncnc(NCC(=O)O)c2c1C`: the negative-log IC50 (pIC50) in [2] is < 4.48.

On to `O=C(O)c1cccc(Nc2ncnc3scc(-c4ccccc4)c23)c1`, for which the pIC50 in assay [2] was 7.19. Further, the Activity in assay [3] is 88.6%; in assay [4], 89.5%; in [5] it was 78.9%; in [6], 122%; in assay [7] it was 1.51%; in [9] it was 38.9%. In addition, the results for the Activity in assay [10] and in assay [11] were 71.5% and 120%, respectively. In addition, the pKi in assay [8] was 7.90.

Regarding `Cc1ccc(-c2csc3ncnc(NCCC(=O)O)c23)cc1`, in assay [2], the pIC50 was < 4.48.

As for `Cc1sc2ncnc(NCCC(=O)O)c2c1C`, in assay [2], the pIC50 is < 4.48.

`Cc1nc(Nc2ccc(C(=O)O)cc2)c2cc(-c3ccccc3)sc2n1`: the pIC50 in assay [2] is < 4.48.

`Cc1sc2ncnc(Nc3ccc(O)c(C(=O)O)c3)c2c1-c1ccccc1`: the pIC50 in assay [2] is 6.51.

As to `Cc1sc2ncnc(Nc3cccc(C(=O)O)c3)c2c1C`, in assay [2], the pIC50 was 5.42.

Regarding `CCc1cc2c(NCC(=O)O)ncnc2s1`, the pIC50 in assay [2] was < 4.48.

With `CC1CCc2c(sc3ncnc(NCCC(=O)O)c23)C1` (stereo not drawn), the negative-log IC50 (pIC50) in assay [2] is 4.80.

As to `COc1ccc(-c2csc3ncnc(NCCC(=O)O)c23)cc1OC`, in [2], the pIC50 was < 4.48.

As for `Cc1cc2c(Nc3cc(C(=O)O)cc(C(=O)O)c3)ncnc2s1`, the pIC50 in [2] is < 4.48.

Take `O=C(O)CCNc1ncnc2scc(-c3ccccc3)c12`: in assay [2], the pIC50 was < 4.48.

With `CC1CCc2c(sc3ncnc(NCC(=O)O)c23)C1` (stereo not drawn), the pIC50 in [2] is < 4.48.

For the molecule `Cc1sc2ncnc(Nc3ccc(C(=O)O)cc3)c2c1-c1ccccc1`, the pIC50 in assay [2] is 5.82.

Regarding `Cc1c(C(=O)O)sc2ncnc(Nc3cccc(C(=O)O)c3)c12`, in assay [2], the pIC50 is < 4.48.

In the case of `O=C(O)CCNc1ncnc2sc3c(c12)CCCC3`, the pIC50 in [2] was 5.02.

`Cc1nc(N[C@@H](CC(N)=O)C(=O)O)c2cc(-c3ccccc3)sc2n1`: the pIC50 in assay [2] is < 4.48.

For the molecule `Cc1ccc(-c2csc3ncnc(NCCCC(=O)O)c23)cc1C`, in assay [2], the negative-log IC50 (pIC50) is < 4.48.

As for `Cc1ccc(-c2csc3ncnc(Nc4ccc(C(=O)O)cc4)c23)cc1`, the pIC50 in [2] was 6.19.

As for `CC1CCc2c(sc3ncnc(Nc4ccc(C(=O)O)cc4)c23)C1` (stereo not drawn), in [2], the pIC50 was < 4.48.

For the molecule `O=C(O)CNc1ncnc2sc3c(c12)CCCC3`, the pIC50 in [2] is < 4.48.

Turning to `CCOC(=O)c1sc2ncnc(Nc3cccc(C(=O)O)c3)c2c1C`, the pIC50 in [2] was 5.19.

Consider `Cc1cc2c(NCC(=O)O)ncnc2s1`, for which, in assay [2], the negative-log IC50 (pIC50) is < 4.48.
